In patent US10266497B2 (ABIDE THERAPEUTICS, INC., priority 2017, dated 2019):

What was measured:
[1] = molecular target: T1, FAAH (Homo sapiens, UniProt O00519); assay: In vitro competitive activity-based protein profiling, FAAH, human; conditions: for inhibition at 1 µM: read-out: FAAH % inh. 1 μM (human)
T1 sequence (O00519 1-579): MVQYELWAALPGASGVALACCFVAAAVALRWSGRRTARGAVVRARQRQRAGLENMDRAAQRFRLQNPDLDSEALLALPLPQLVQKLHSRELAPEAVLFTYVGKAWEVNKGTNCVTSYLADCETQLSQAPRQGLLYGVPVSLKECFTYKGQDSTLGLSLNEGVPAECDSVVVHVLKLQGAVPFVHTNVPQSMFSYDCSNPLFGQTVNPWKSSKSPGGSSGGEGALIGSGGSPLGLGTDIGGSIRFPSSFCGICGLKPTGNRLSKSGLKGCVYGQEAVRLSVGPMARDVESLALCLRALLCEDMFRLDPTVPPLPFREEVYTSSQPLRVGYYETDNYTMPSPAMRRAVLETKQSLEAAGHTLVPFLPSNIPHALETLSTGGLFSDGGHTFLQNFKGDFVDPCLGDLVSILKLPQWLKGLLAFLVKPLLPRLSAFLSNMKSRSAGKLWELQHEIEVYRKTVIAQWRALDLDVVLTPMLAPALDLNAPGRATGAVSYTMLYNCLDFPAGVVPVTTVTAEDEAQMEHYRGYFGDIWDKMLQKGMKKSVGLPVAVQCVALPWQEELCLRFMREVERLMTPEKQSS
Procedure: Biological Evaluation In Vitro Competitive Activity-Based Protein Profiling.
Proteomes (mouse brain membrane fraction for mouse assays; human prefrontal cortex membrane fractions for human assays) (50 mL, 1.0 mg/mL total protein concentration) were preincubated with varying concentrations of inhibitors at 37° C. After 30 min, FP-Rh (1.0 mL, 50 mM in DMSO) was added and the mixture was incubated for another 30 min at 37° C. Reactions were quenched with SDS loading buffer (15 μL—4λ) and run on SDS-PAGE.

[2] = molecular target: T2, MAGL (Homo sapiens, UniProt Q99685); assay: In vitro competitive activity-based protein profiling, MAGL, human; conditions: for inhibition at 1 µM: read-out: MAGL % inh. 1 μM (human)
T2 sequence (Q99685 1-303): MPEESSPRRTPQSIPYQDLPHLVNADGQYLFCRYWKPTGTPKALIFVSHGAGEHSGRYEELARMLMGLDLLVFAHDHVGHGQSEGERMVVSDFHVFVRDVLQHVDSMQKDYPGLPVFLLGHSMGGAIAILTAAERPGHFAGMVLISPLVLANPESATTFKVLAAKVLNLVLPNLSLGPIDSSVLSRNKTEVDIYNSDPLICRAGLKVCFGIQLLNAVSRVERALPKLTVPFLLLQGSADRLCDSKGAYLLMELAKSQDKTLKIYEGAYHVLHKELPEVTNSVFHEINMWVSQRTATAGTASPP

[3] = molecular target: T3, MAGL (Mus musculus, UniProt O35678); assay: In vitro competitive activity-based protein profiling, MAGL, mouse; conditions: read-out: MAGL % inh. 1 μM (mouse)
T3 sequence (O35678 1-303): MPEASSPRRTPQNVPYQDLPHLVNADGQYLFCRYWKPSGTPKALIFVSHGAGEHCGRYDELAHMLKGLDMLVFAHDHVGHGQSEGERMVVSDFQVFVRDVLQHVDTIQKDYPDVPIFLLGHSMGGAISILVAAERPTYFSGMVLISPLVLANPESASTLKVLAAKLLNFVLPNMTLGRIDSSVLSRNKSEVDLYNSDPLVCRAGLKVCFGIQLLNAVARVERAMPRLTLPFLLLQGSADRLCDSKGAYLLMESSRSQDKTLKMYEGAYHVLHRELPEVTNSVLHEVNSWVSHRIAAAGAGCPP

Compound | inhibition at 1 µM [1] [%] | inhibition at 1 µM [2] [%] | IC50 [1] [nM] | inhibition at 1 µM [3] [%] | inhibition at 10 µM ([2]; read-out: MAGL % inh. (human) at 10 uM) [%]
NC(=O)c1ccn(C(=O)N2CCC3(CCN(Cc4cc(F)cc(Cl)c4)C3)CC2)n1 [Example 178, 1-(2-(3-chloro-5-fluorobenzyl)-2,8-diazaspiro[4.5]decane-8-carbonyl)-1H-pyrazole-3-carboxamide] | > 75 | > 75 |  |  | 
O=C(O)c1ccn(C(=O)N2CCC3(CCN(Cc4ccc(-c5ccccc5)cc4C(F)(F)F)C3)CC2)n1 [Example 170, 1-(2-((3-(trifluoromethyl)-[1,1′-biphenyl]-4-yl)methyl)-2,8-diazaspiro[4.5]decane-8-carbonyl)-1H-pyrazole-3-carboxylic acid] | > 75 | > 75 | 100 to 1000 |  | 
NC(=O)c1ccn(C(=O)N2CCC3(CCN(Cc4cc(Cl)cc(C(F)(F)F)c4)C3)CC2)n1 [Example 196, 1-(2-(3-chloro-5-(trifluoromethyl)benzyl)-2,8-diazaspiro[4.5]decane-8-carbonyl)-1H-pyrazole-3-carboxamide] | > 75 | > 75 |  |  | 
O=C(O)c1ccn(C(=O)N2CCC3(CCCN3Cc3ccc(Cl)cc3N3CCCC3)CC2)n1 [Example 180, 1-(1-(4-chloro-2-(pyrrolidin-1-yl)benzyl)-1,8-diazaspiro[4.5]decane-8-carbonyl)-1H-pyrazole-3-carboxylic acid] | 0 to 25 | > 75 |  |  | 
O=C(O)c1ccn(C(=O)N2CCN(Cc3cccc(Oc4ccnnc4)c3)CC2)n1 [Example 177, 1-(4-(3-(pyridazin-4-yloxy)benzyl)pipera-zine-1-carbonyl)-1H-pyrazole-3-carboxylic acid] | 0 to 25 | 25 to 50 |  |  | 
O=C(O)c1ccn(C(=O)N2CCC(OCc3cc(Cl)cc(Oc4ccc(Cl)cc4)c3)CC2)n1 [Example 27, 1-(4-((3-Chloro-5-(4-chlorophenoxy)benzyl)oxy)piperidine-1-carbonyl)-1H-pyrazole-3-carboxylic Acid] |  | > 75 |  | > 75 | 
C[C@@H]1CN(Cc2cc(Cl)cc(C(F)(F)F)c2)CCN1C(=O)n1ccc(C(N)=O)n1 [Example 272, (R)-1-(4-(3-chloro-5-(trifluoromethyl)benzyl)-2-methylpiperazine-1-carbonyl)-1H-pyrazole-3-carboxamide] |  | > 75 |  | > 75 | 
O=C(O)c1ccn(C(=O)N2CCC3(CCN(Cc4cccc(-c5nccs5)c4)C3)CC2)n1 [Example 305, 1-(2-(3-(thiazol-2-yl)benzyl)-2,8-diazaspiro[4.5]decane-8-carbonyl)-1H-pyrazole-3-carboxylic acid] |  | 50 to 75 |  | 0 to 25 | 
CN(Cc1ccc(N2CCCC2)c(C(F)(F)F)c1)C1(C)CCN(C(=O)n2ccc(C(=O)O)n2)CC1 [Example 383, 1-(4-methyl-4-(methyl(4-(pyrrolidin-1-yl)-3-(trifluoromethyl)benzyl)amino)piper-idine-1-carbonyl)-1H-pyrazole-3-carboxylic acid] |  | > 75 |  | > 75 | 
C[C@@H]1CN(Cc2cc(F)cc(Oc3ccc(Cl)cc3)c2)CCN1C(=O)n1ccc(C(=O)O)n1 [Example 348, (R)-1-(4-(3-(4-chlorophenoxy)-5-fluorobenzyl)-2-methylpiperazine-1-carbonyl)-1H-pyrazole-3-carboxylic acid] |  | > 75 |  | > 75 | 
O=C(O)c1ccn(C(=O)N2CCC3(CCN(Cc4cccc(-c5ccccc5)c4Cl)C3)CC2)n1 [Example 358, 1-(2-((2-chloro-[1,1′-biphenyl]-3-yl)methyl)-2,8-diazaspiro[4.5]decane-8-carbonyl)-1H-pyrazole-3-carboxylic acid] |  | > 75 |  | > 75 | 
NC(=O)c1ccn(C(=O)N2CCC3(CCCN3Cc3cc4ccc(C(F)(F)F)cc4s3)CC2)n1 [Example 22, 1-(1-((6-(Trifluoromethyl)benzo[b]thiophen-2-yl)methyl)-1,8-diazaspiro[4.5]decane-8-carbonyl)-1H-pyrazole-3-carboxamide] |  | > 75 |  | > 75 | 
O=C(O)c1ccn(C(=O)N2CCC3(CCN(Cc4cccc(-c5ccccn5)c4)C3)CC2)n1 [Example 301, 1-(2-(3-(pyridin-2-yl)benzyl)-2,8-diazaspiro[4.5]decane-8-carbonyl)-1H-pyrazole-3-carboxylic acid] |  |  |  | 0 to 25 | > 75
NC(=O)c1ccn(C(=O)N2CCN(Cc3cccc(-c4cncnc4)c3)CC2)n1 [Example 179, 1-(4-(3-(pyrimidin-5-yl)benzyl)piperazine-1-carbonyl)-1H-pyrazole-3-carboxamide] | 50 to 75 | > 75 |  |  | 
O=C(O)c1ccn(C(=O)N2C[C@H]3C[C@H](Oc4cccc(-c5ccnnc5)c4)C[C@H]3C2)n1 [Example 248, 1-(trans-5-(3-(pyridazin-4-yl)phenoxy)octa-hydrocyclopenta[c]pyrrole-2-carbonyl)-1H-pyrazole-3-carboxylic acid] |  | 25 to 50 |  | 0 to 25 | 
NC(=O)c1ccn(C(=O)N2CCC3(CCN(Cc4cccc(C(F)(F)F)c4)C3)CC2)n1 [Example 284, 1-(2-(3-(trifluoromethyl)benzyl)-2,8-diazaspiro[4.5]decane-8-carbonyl)-1H-pyrazole-3-carboxamide] |  | > 75 |  | > 75 | 
O=C(O)c1ccn(C(=O)N2C[C@H]3C[C@@H](NCc4ccc(Oc5ccc(Cl)cc5)cc4)C[C@H]3C2)n1 [Example 363, 1-(cis-5-((4-(4-chlorophenoxy)benzyl)amino)octa-hydrocyclopenta[c]pyrrole-2-carbonyl)-1H-pyrazole-3-carboxylic acid] |  | 0 to 25 |  | 0 to 25 | 
CC1(NCc2ccc(C(F)(F)F)cc2N2CCCC2)CCN(C(=O)n2ccc(C(=O)O)n2)CC1 [Example 361, 1-(4-methyl-4-((2-(pyrrolidin-1-yl)-4-(trifluoromethyl)benzyl)amino)piper-idine-1-carbonyl)-1H-pyrazole-3-carboxylic acid] |  | > 75 |  | > 75 | 
Cc1c(CO[C@@H]2C[C@@H]3CN(C(=O)n4ccc(C(=O)O)n4)C[C@@H]3C2)cccc1C(F)(F)F [Example 289, 1-(cis-5-((2-methyl-3-(trifluoromethyl)benzyl)oxy)octa-hydrocyclopenta[c]pyrrole-2-carbonyl)-1H-pyrazole-3-carboxylic acid] |  | > 75 |  | > 75 | 
